{"source": "patent US7053069B2", "about": "“Pharmaceutical compositions and methods of using C-21 modified epothilone derivatives” (Bristol-Myers Squibb Company, priority 2002, dated 2006)", "key": {"[1]": {"tested_on": "taxane-sensitive and taxane-resistant tumor models", "assay": "Anticancer activity in tumor models"}, "[2]": {"assay": "Degradation of drug during solution preparation and lyophilization", "assay_type": "physicochemical", "settings": "dissolution at about 5° C., pH 6.0, lyophilization at −15° C. 34 hours, drying at 25° C. 24 hours", "description": "[1S-[1R*,3R*(E),7R*,10S*,11R*,12R*,16S*]]-3-[2-[2-(Aminomethyl)-4-thiazolyl]-1-methylethenyl]-7,11-dihydroxy-8,8,10,12,16-pentamethyl-4,17-dioxabicyclo[14.1.0]heptadecane-5,9-dione (compound of formula Ic) (8.7 g) was dissolved in 1280 mL of an aqueous solution of citric acid (10.1 grams) and dextran 40 (80 grams) which had been pre-cooled to about 5° C. Once the drug powder had become completely dissolved, the solution pH was adjusted to 6.0 and Water for Injection (178 mL) was added.\nThe solution formed above was promptly lyophilized in a Virtis Genesis(TM) lyophilizer at −15° C. with exclusion of light over a period of 34 hours. The resultant lyophile was then further dried at 25° C. under high vacuum for 24 hours. […] The lyophile was packaged under clean conditions into 15 mL vials, each containing 10 mg of drug plus a 10% excess to allow for transfer and dispensing (vial/needle/syringe, VNS) losses."}, "[3]": {"assay": "Clinical pharmacokinetics, 15-minute infusion once every three weeks", "assay_type": "in vivo, human", "description": "(§1) Compound A was administered to human patients once every three (3) weeks as a 15-minute infusion, using an accelerated followed by modified Fibonacci dose escalation design. Twenty-two (22) patients were treated at does levels of 0.6, 1.2, 2.5, 5, 10, 20, 30 and 40 mg/m^2."}, "[4]": {"assay": "Aqueous solubility / formulation without surfactants", "assay_type": "physicochemical", "description": "The epothilones of formula Ic may be formulated without the use of surfactants to a concentration of about at least 20 mg/mL with pH adjustment. If formulations containing a surfactant are desired, the lyophilized epothilone analogs represented by formula I, Ia, Ib and Ic are reconstituted with a mixture of equal parts by volume of Dehydrated Alcohol, USP and a nonionic surfactant, preferably a polyoxyethylated castor oil surfactant (available from GAF Corporation, Mount Olive, N.J., under the trademark, Cremophor EL). Alternately, an oral suspension can be prepared by pH adjustment and the use of a stabilizer, surfactant, and/or viscosity enhancing agent, and may be administered alone or with water or with a pharmaceutically acceptable acid neutralizing buffer."}, "[5]": {"assay": "Stability of aqueous solution, time for 5% drug loss (t95)", "assay_type": "physicochemical", "settings": "37° C.", "excerpt": "Administering one or more epothilones of formula I, Ia, Ib or Ic, or a pharmaceutically acceptable salt, solvate, clathrate, hydrate, or prodrug thereof, in combination with a pharmaceutically acceptable acid neutralizing buffer provides increased bioavailability of the one or more epothilones of formula I, Ia, Ib or Ic. Without being limited by theory, it is believed that the increased bioavailability is due, at least in significant part, to the buffer decreasing the rate of decomposition of the epothilones of formula I, Ia, Ib or Ic, or a pharmaceutically acceptable salt, solvate, clathrate, hydrate, or prodrug thereof, in the acidic environment of the stomach. Certain epothilones, including the epothilone of formula Ic, are unstable in acidic aqueous environments and decompose, presumably by an acid catalyzed hydrolytic opening of the epoxide ring. For example, the time for 5% drug loss (t95) at 37° C. for an aqueous solution of Compound A (epothilone of formula Ic) is approximately 14 h at pH 7, but <0.2 hours at pH 2.5. Thus, when epothilones of formula I, Ia, Ib or Ic, or a pharmaceutically acceptable salt, solvate, clathrate, hydrate, or prodrug thereof, are orally administered they decompose in the stomach of the patient such that they are either minimally absorbed or not absorbed by the gastrointestinal tract."}, "[6]": {"assay": "Clinical toxicity in dose escalation study", "assay_type": "in vivo", "settings": "human patients", "description": "as §1"}, "[7]": {"settings": "human, 30 mg/m^2, cycle 1, mean, n=7"}, "[8]": {"settings": "plasma, intravenous, 30 mg/m2, human, 30 mg/m^2, cycle 1, mean, n=7"}}, "data": [{"molecule": "C/C(=C\\c1csc(CN)n1)[C@@H]1C[C@@H]2O[C@]2(C)CCC[C@H](C)[C@H](O)[C@@H](C)C(=O)C(C)(C)[C@@H](O)CC(=O)O1", "note": "[Compound A, [1S-[1R*,3R*(E),7R*,10S*,11R*,12R*,16S*]]-3-[2-[2-(aminomethyl)-4-thiazolyl]-1-methylethenyl]-7,11-dihydroxy-8,8,10,12,16-pentamethyl-4,17-dioxabicyclo[14.1.0]heptadecane-5,9-dione]", "values": [{"measurement": "anticancer activity", "setting": "[1]", "value": "demonstrated anticancer activity"}, {"measurement": "degradation of the drug", "setting": "[2]", "value": "No detectable degradation"}, {"measurement": "time plasma concentrations near or above the preclinically determined effective concentration (MEC)", "setting": "[3]; four of the seven patients in the 30 mg/m2 cohort", "value": "about 8 hours"}, {"measurement": "increases in AUC and CMAX", "setting": "[3]; human patients, 0.6 to 40 mg/m^2, preliminary pharmacokinetics", "value": "dose-related"}, {"measurement": "C1t", "setting": "[3]; [7]", "value": 282, "unit": "mL/min/m^2"}, {"measurement": "Vss", "setting": "[3]; [7]", "value": 494, "unit": "L/m^2"}, {"measurement": "AUC", "setting": "[3]; [8]", "value": 2100, "unit": "ng·h/mL"}, {"measurement": "Cmax", "setting": "[3]; [8]", "value": 3430, "unit": "ng/mL"}, {"measurement": "half-life", "setting": "[3]; [8]", "value": 33, "unit": "h"}, {"measurement": "aqueous solubility", "setting": "[4]", "value": "water soluble"}, {"measurement": "concentration formulated without surfactants", "setting": "[4]; with pH adjustment", "value": "at least 20 mg/mL"}, {"measurement": "time for 5% drug loss (t95)", "setting": "[5]; pH 2.5", "value": "< 0.2", "unit": "h"}, {"measurement": "time for 5% drug loss (t95)", "setting": "[5]; pH 7", "value": "approximately 14 h"}, {"measurement": "related toxicities", "setting": "[6]", "value": "diarrhea, nausea, vomitting, anorexia, fatigue, anemia, alopecia, neuropathy, myalgia and neutropenia"}, {"measurement": "dose-limiting toxicity (DLT)", "setting": "[6]; 0.6 to 40 mg/m^2", "value": "No dose-limiting toxicity (DLT) was observed"}]}]}
